For one data set, the system named is HIV-1 (HTLV-IIIB). The data set is described as follows: microbe, parasite or virus in culture. The class given is cell-based. The settings on record: for ED50: antiviral activity, MT-4 cells challenged with HIV-1 (HTLV-IIIB) at 100 CCID50, 5 days. As to the method:
(§1) The compounds of the invention were tested in a screen by the MTT method (J.Virol. Methods […]: 309-321 [1988]). MT-4 cells (2.5 x 10⁴ / well) were challenged with HIV-1 (HTLV-IIIB) or HIV-2 (LAV-2 ROD) at a concentration of 100 CCID₅₀ and incubated in the presence of various concentrations of the test compounds, which were added immediately after challenge with the virus. After 5 days culture at 37°C in a CO₂ incubator, the number of viable cells was assessed by the MTT (tetrazolium) method. Antiviral activity and cytotoxicity of the compounds are expressed in the table below as ED₅₀ (ug/ml) and CD₅₀ (ug/ml), respectively. The potential therapeutic usefulness was assessed by calculating a Selectivity Index (SI) corresponding to the ratio of CD₅₀ to ED₅₀. A control test was performed using the known anti-HIV treatment AZT, and a comparison compound HPA-23 was also run through the screen as detailed below. In the table below, the compounds screened were […]

A short description of data set [1]: Cytotoxicity by MTT method. The class given is cell-based. The settings on record: human, MT-4 cells, 5 days, read-out: CD50. As to the method: as §1
The next data set relates to MT-4 cells. The experiment in a line: Cytotoxicity by MTT method. The class given is cell-based. The following applies: 5 days. As to the method:
as §1

For another data set, the system named is HIV-2 (LAV-2 ROD). The data set is described as follows: MTT method anti-HIV screen in MT-4 cells, HIV-2 challenge. The following applies: antiviral activity, MT-4 cells challenged with HIV-2 (LAV-2 ROD) at 100 CCID50, 5 days. The class given is cell-based. As to the method: as §1
Another data set concerns herpes virus. The settings on record: from JP 64-38,022; cited from earlier work.
For a further data set, the system named is HIV. The following applies: reported in Chemical and Engineering News, December 1986; cited from earlier work.
The conditions of data set [2]: in vivo; cited from earlier work.
Setting [3] is: value printed in the HIV-1 line, 7200 min.
Where [4] appears, read: value printed in the HIV-2 line, 7200 min.
[5] abbreviates: value printed in the HIV-1 line.
Where [6] appears, read: value printed in the HIV-2 line.

Where “and” joins values, the source holds several entries; their conditions need not be identical. Equal values may be shown once. Where only a bound is given, the exact number is not on record here.

Results on 13 compounds are retold here after EP0442663A1, “Improvements in chemical compounds” (priority 1990, dated 1991).

Regarding `Cc1cn([C@H]2C[C@H](N=[N+]=[N-])[C@@H](CO)O2)c(=O)[nH]c1=O` [AZT, azidothymidione, reference compound], the EC50 with HIV-1 (HTLV-IIIB) (Human immunodeficiency virus 1, IIIB, MT4, 120 h, read-out: ED50) was under 0.008 µg/mL. Moreover, the SI in the data set with HIV-1 (HTLV-IIIB) (Selectivity Index, ratio of CD50 to ED50, HIV-1, 7200 min) is recorded as over 125. Further, the CC50 at 120 h in data set [1] was over 1 µg/mL.

In the case of (NH₄)₁₂[H₂P₂W₁₂O₄₈].16H₂O [Example 7], the CD50 in the data set with MT-4 cells (setting [3]) is >500.0 µg/mL and 304.0 µg/mL; with MT-4 cells (setting [4]), 346.0 µg/mL and 286.0 µg/mL.

As for “(NH₄)₁₇H[NaSb₉W₂₁O₈₆] [HPA 23, reference compound]”, the ED50 in the data set on HIV-1 (HTLV-IIIB) is 2.8 µg/mL; in the data set on HIV-2 (LAV-2 ROD) it was over 4 µg/mL. Further, the results for the CD50 in the data set with MT-4 cells (setting [5]) and with MT-4 cells (setting [6]) were 7.4 µg/mL and 2.4 µg/mL, respectively.

With K9Li[P2W17O62] [E], the ED50 worked out at 2.92 µg/mL with HIV-1 (HTLV-IIIB) and 7.28 µg/mL in the data set on HIV-2 (LAV-2 ROD). Further, the CD50 in the data set on MT-4 cells (setting [5]) was determined as 502.9 µg/mL; in the data set with MT-4 cells (setting [6]), 429.7 µg/mL.

On to K10[P2W18Co4(H2O)2O68], for which the values for the ED50 with HIV-1 (HTLV-IIIB) and in the data set with HIV-2 (LAV-2 ROD) were 1.47 µg/mL and 12.26 µg/mL, respectively. Besides, the CD50 in the data set with MT-4 cells (setting [5]) worked out at 84.8 µg/mL; in the data set with MT-4 cells (setting [6]), 81.6 µg/mL.

As to K10[P2W18Zn4(H2O)2O68] [B], the ED50 was determined as 0.71 µg/mL in the data set with HIV-1 (HTLV-IIIB) and 18.03 µg/mL in the data set with HIV-2 (LAV-2 ROD). The CD50 with MT-4 cells (setting [5]) was 466.3 µg/mL; in the data set on MT-4 cells (setting [6]) it was 441.9 µg/mL.

On to K12[H2P2W12O48] [A], for which the ED50 in the data set with HIV-1 (HTLV-IIIB) was 0.089 µg/mL; in the data set on HIV-2 (LAV-2 ROD) it was 0.153 µg/mL. Further, the results for the CD50 in the data set on MT-4 cells (setting [5]) and in the data set with MT-4 cells (setting [6]) were 721.0 µg/mL and 675.9 µg/mL, respectively.

For the compound K₅BW₁₂O₄₀, the “activity against herpes virus” value in the data set on herpes virus is on record as “have activity against herpes virus”.

With K₇PW₁₀Ti₂O₄₀, the “activity against herpes virus” value in the data set on herpes virus was “have activity against herpes virus”.

Na7[PrW10O35] [C]: the ED50 is 1.86 µg/mL in the data set with HIV-1 (HTLV-IIIB) and 2.70 µg/mL in the data set with HIV-2 (LAV-2 ROD). Also, the CD50 came to 761.8 µg/mL in the data set on MT-4 cells (setting [5]) and 221.7 µg/mL with MT-4 cells (setting [6]).

Na12[P4W14O58] [F]: the ED50 in the data set with HIV-1 (HTLV-IIIB) came out at 4.82 µg/mL; in the data set on HIV-2 (LAV-2 ROD), 13.26 µg/mL. Further, the CD50 is 655.8 µg/mL with MT-4 cells (setting [5]) and 682.8 µg/mL with MT-4 cells (setting [6]).

Consider “Reduced form of K₆[P₂W₁₂Mo₆O₆₂] [Example 12]”, for which the ED50 in the data set with HIV-1 (HTLV-IIIB) (7200 min) is 4.1 µg/mL and 5.8 µg/mL; in the data set with HIV-2 (LAV-2 ROD) (7200 min) it was 1.8 µg/mL and 1.4 µg/mL. Besides, the CD50 was 234.0 µg/mL and 300.0 µg/mL with MT-4 cells (setting [3]); 315.0 µg/mL and 306.0 µg/mL with MT-4 cells (setting [4]).

silicotungstate acid, H₄SiW₁₂O₄₀: the “activity against HIV” value with HIV is reported as “has activity against HIV”. Moreover, the “toxicity in higher animals” value in data set [2] was “abandoned because of its toxicity in higher animals”.
